Assay results reported in patent US20180318379A1, “INHIBITION OF TRIGGERING RECEPTOR EXPRESSED ON MYELOID CELLS 1 (TREM1) TO TREAT CENTRAL NERVOUS SYSTEM DISORDERS” (The Board of Trustees of the Leland Stanford Junior …, priority 2017, published 2018).

Columns and labels:
TREM1 [1] = assay: Neuroscore after MCAo-RP stroke in mice; assay type: in vivo; conditions: 2 days after MCAo-RP; LP17 vs scrambled peptide; n=15-18 per group; ANOVA effect of LP17 p=0.008
TREM1 [2] = assay: FACS quantification of brain myeloid cells after MCAo-RP stroke; assay type: in vivo, mice
Experimental: FIG. 12. A representation of the dynamics of immune present at the indicated days after stroke (or the temporal dynamics of immune cell subsets). Stroke was modeled in […] 3 mo male mice using 45 minutes of middle cerebral artery occlusion (MCAo) followed by reperfusion (RP).
These plots show increased CD11b^+/CD45^lo microglia and reduced CD11b^+/CD45^hi macrophages with LP17 treatment.

[3] = 2 days after MCAo-RP, LP17 vs scrambled peptide

With LQVTDSGLYRCVIYHPP [LP17] the neuroscores (TREM1 [1]) was “improved”, the “CD11b+/CD45hi macrophages in stroked hemisphere (FACS)” value (TREM1 [2]; [3]) was “reduced” and the “CD11b+/CD45lo microglia in stroked hemisphere (FACS)” value (TREM1 [2]; [3]) was “increased”. For the same sequence, the “infiltration of macrophages after stroke” value (TREM1 [2]; after MCAo-RP stroke) was “reduces infiltration of macrophages”.
